pIC50, pKi: −log10 of the molar value. Read-outs that look alike come from different tables or passages of the source.
Key:
CB2 receptor = molecular target: T1, CB2 receptor (Mus musculus, UniProt P47936); assay: CB2 receptor binding, [3H]CP-55,940 displacement; conditions: mouse spleen membranes
T1 construct: membranes were prepared from frozen mouse spleen; from tissue; host or cells: mouse spleen
Procedure: (§1) The treated membranes were subsequently used in the binding assay described below. Approximately 30 μg of membranes were incubated in silanized 96-well microtiter plate with TME containing 0.1% essentially fatty acid-free bovine serum albumin (BSA), 0.8 nM [^3H] CP-55,940, and various concentrations of test materials in a final volume of 200 μL. The assays were incubated for 1 hour at 30° C. and then immediately filtered using Packard Filtermate 196 harvester and Whatman GF/C filterplates and washed with wash buffer (TME) containing 0.5% BSA. Radioactivity was detected using MicroScint 20 scintillation cocktail added directly to the dried filterplates, and the filterplates were counted using a Packard Instruments Top-Count. Nonspecific binding was assessed using 100 nM CP-55,940. Data collected from three independent experiments performed with duplicate determinations was normalized between 100% and 0% specific binding for [^3H] CP-55,940, determined using buffer and 100 nM CP-55,940. The normalized data was analyzed using a 4-parameter nonlinear logistic equation to yield IC50 values.
For the CB2 receptor binding studies, membranes were prepared from frozen mouse spleen essentially according to the procedure of P. R. Dodd et al, A Rapid Method for Preparing Synaptosomes: Comparison with Alternative Procedures, Brain Res., 226, 107-118 (1981) which is incorporated by reference herein. Silanized centrifuge tubes were used throughout to minimize receptor loss due to adsorption. The CB2 binding assay was conducted in the same manner as for the CB1 binding assay. The binding affinities (Ki) were also expressed in nanomoles (nM).

anandamide transporter = assay: [3H]Anandamide transporter competition assay; type: cell-based; conditions: human CCF-STG1 astrocytoma cells, 10 nM [3H]anandamide
Procedure: Human CCF-STG1 astrocytoma cells (American Type Culture collection) were grown in RPMI1640 culture medium containing 2 mM L-glutamine, 4.5 g/L glucose, 10 mM HEPES, and 1.0 mM sodium pyruvate, 10% FBS, cultures at 37° C. with 5% CO2. For standard competition assays, confluent cells grown in 24-well plates were rinsed and preincubated for 10 min at 37° C. in assay buffer (Hank's Balanced Salt Solution containing 0.1% DMSO, 10 mM HEPES) plus test compounds (at their final concentrations of 0.01-100 μM). After having discarded the preincubation media, the cells were incubated for 4 min in 0.2 ml assay buffer containing 10 nM [^3H] anandamide (137.6 Ci/mmol, New England Nuclear) plus test compounds. Reactions were stopped by removing the incubation media and rinsing the cells three times with 0.5 ml of ice-cold HBSS buffer containing 0.1% fatty acid-free Bovine Serum Albumin (sigma). Radioactive material in Triton X-100 cell extracts was measured by liquid scintillation counting. A minimum of three independent experiments conducted in six replicates was used to define the concentration needed to produce half-maximal inhibition (IC50) for each compound. IC50 values were obtained by nonlinear regression fitting of the data, using the PRIZM software package. Data are expressed as mean±SEM.

CB1 cannabinoid receptor = molecular target: T2, CB1 cannabinoid receptor (Rattus norvegicus, UniProt P20272); assay: CB1 receptor binding, [3H]CP-55,940 displacement; conditions: rat forebrain membranes
T2 construct: membranes were prepared from rat forebrain membranes; from tissue; host or cells: rat forebrain
T2 sequence (P20272 whole entry): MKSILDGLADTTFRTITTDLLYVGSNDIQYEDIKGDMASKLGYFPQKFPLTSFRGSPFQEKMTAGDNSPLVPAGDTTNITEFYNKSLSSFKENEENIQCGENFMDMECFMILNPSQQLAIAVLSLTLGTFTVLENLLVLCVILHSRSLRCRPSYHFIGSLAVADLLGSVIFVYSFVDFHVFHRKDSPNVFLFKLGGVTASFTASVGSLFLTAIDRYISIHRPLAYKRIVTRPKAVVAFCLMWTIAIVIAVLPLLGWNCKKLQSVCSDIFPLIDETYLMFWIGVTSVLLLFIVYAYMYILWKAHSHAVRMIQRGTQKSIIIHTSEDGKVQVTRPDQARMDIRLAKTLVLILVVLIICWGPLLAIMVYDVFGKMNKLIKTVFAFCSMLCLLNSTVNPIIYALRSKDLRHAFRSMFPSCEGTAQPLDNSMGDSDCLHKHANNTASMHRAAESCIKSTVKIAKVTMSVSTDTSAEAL
Procedure: Some inventive analogs were tested for CB2 receptor binding affinity and for CB1 receptor affinity (to determine selectivity). […] The lower the Ki value, the higher the binding affinity. […] For the CB1 receptor binding studies, membranes were prepared from rat forebrain membranes according to the procedure of P. R. Dodd et al, A Rapid Method for Preparing Synaptosomes: Comparison with Alternative Procedures, Brain Res., 107-118 (1981). The binding of the novel analogues to the CB1 cannabinoid receptor was assessed as described in W. A. Devane et al, Determination and Characterization of a Cannabinoid Receptor in a Rat Brain, Mol. Pharmacol., 34, 605-613 (1988) and A. Charalambous et al, 5′-azido Δ^8-THC: A Novel Photoaffinity Label for the Cannabinoid Receptor, J. Med. Chem., 35, 3076-3079 (1992) with the following changes. The above articles are incorporated by reference herein.
Membranes, previously frozen at −80° C., were thawed on ice. To the stirred suspension was added three volumes of TME (25 mM Tris-HCl buffer, 5 mM MgCl2 and 1 mM EDTA) at a pH 7.4. The suspension was incubated at 4° C. for 30 min. At the end of the incubation, the membranes were pelleted and washed three times with TME.
as §1

Mag-lipase = molecular target: T3, Mag-lipase (Rattus norvegicus, UniProt Q8R431); assay: Inhibition of MAG-lipase: 2-AG metabolism to arachidonic acid; type: biochemical; conditions: 30 nmoles compound with 30 nmoles 2-AG, 30 μg enzyme, 300 μL, 20 min
T3 construct: supernatant from final spin in the anandamide amidase preparation; from tissue; host or cells: supernatant (soluble fraction) of the anandamide amidase preparation, rat brain by the cited procedure
T3 sequence (Q8R431 1-303): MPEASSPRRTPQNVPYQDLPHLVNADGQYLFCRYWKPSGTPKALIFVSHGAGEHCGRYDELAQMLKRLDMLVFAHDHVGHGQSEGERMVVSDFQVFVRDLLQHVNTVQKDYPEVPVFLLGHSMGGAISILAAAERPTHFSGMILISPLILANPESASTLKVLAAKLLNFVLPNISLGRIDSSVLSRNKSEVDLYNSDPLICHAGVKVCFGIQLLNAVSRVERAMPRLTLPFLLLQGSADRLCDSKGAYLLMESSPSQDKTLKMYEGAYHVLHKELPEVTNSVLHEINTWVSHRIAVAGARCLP
Procedure: (§2) All compound solutions were made to a concentration of 10 mM in DMSO. Three tests were performed on each compound: hydrolysis, to determine the stability of the compound in assay conditions without the enzyme present; metabolism, to determine the stability of the compound with the enzyme present; and inhibition of 2-Arachidonoyl glycerol (native substrate) metabolism to arachidonic acid.
(§3) The inhibition of 2-AG metabolism was measured by mixing 30 nmoles of the compound with 30 nmoles 2-AG, and 30 μg enzyme preparation in TME buffer (final volume of 300 μL). Again the reaction mixture was treated in the same manner as described above and the concentrations of 2-AG and AA were calculated using external standards. Percent inhibition was calculated using the following equation: % Inhib.=(AA20-AA0)i/(AA20-AA0)s where (AA20-AA0)i is the amount of arachidonic acid formed over 20 minutes from 2-AG with the inhibitor present and (AA20-AA0)s is the amount of arachidonic acid formed over 20 minutes from 2-AG when the inhibitor is not present. […] The reaction mixtures were treated as described above and the amount of AA formed was calculated. The software package GraphPad Prism was utilized to calculate IC50 and Ki. HPLC Conditions:
(§4) Chromatographic separation was achieved using an Ultrasphere ODS Pre-column (4.6×45 mm) from Beckman. Hardware consisted of a Waters Millennium HPLC system with a 20 μL injection loop. The mobile phase consisted of 8.5% o-phosphoric acid:acetonitrile (3:7), run isocratically at a rate of 1 mL/min and detection at 204 nm. The total run time was 8 minutes with 2-AG eluting at 3.0 minutes and AA at 6.0 minutes.

[1] = molecular target: T4, FAAH (fatty acid amide hydrolase) (Rattus norvegicus, UniProt P97612); assay: FAAH screening: inhibition of anandamide metabolism to arachidonic acid; type: biochemical; conditions: 25 nmoles compound with 25 nmoles AEA, 75 μg enzyme, 250 μL, 15 min
T4 construct: Anandamide Amidase Activity in Rat Brain Microsomes; from tissue; host or cells: rat brain microsomes (by the cited procedure)
T4 sequence (P97612 1-579): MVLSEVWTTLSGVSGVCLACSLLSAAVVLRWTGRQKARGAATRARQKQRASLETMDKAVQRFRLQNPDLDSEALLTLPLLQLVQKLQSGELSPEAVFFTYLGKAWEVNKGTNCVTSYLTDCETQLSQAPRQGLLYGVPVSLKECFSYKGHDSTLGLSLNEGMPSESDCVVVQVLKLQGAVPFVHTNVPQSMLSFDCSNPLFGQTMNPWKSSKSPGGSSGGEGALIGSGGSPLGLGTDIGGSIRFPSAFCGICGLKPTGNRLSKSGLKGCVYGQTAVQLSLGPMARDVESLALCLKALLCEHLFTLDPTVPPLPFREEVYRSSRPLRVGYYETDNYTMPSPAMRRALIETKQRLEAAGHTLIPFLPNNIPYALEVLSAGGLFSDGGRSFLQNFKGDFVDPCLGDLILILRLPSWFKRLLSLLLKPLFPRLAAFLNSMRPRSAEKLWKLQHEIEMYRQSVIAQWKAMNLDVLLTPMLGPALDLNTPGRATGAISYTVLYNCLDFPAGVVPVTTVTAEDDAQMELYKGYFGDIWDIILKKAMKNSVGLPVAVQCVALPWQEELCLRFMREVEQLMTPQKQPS
Procedure: The FAAH (fatty acid amide hydrolase) enzyme preparation was obtained according to the procedure of Lang and Makriyannis et al High Performance Liquid Chromatographic Determination of Anandamide Amidase Activity in Rat Brain Microsomes, Analytical Biochemistry (238): 40-45, 1996.
as §2, with “anandamide” for “2-Arachidonoyl glycerol”
as §3, with “Again” for “The inhibition of 2-AG metabolism was measured by mixing 30 nmoles of the compound with 30 nmoles 2-AG, and 30 μg enzyme preparation in TME buffer (final volume of 300 μL). Again”, “AEA” for “2-AG”, “Inhib.=(AA15-AA0)i/(AA15-AA0)s” for “Inhib.=(AA20-AA0)i/(AA20-AA0)s”, “(AA15-AA0)c” for “(AA20-AA0)i”, “15” for “20”, “(AA15-AA0)s” for “(AA20-AA0)s”
as §4, with “AEA” for “2-AG”, “2.2” for “3.0”

[2] = with PMSF (second value of cell), read-out: Ki CB1 (nM) (o/w PMSFQ)
[3] = without PMSF (first value of cell), read-out: Ki CB1 (nM) (o/w PMSFQ)
[4] = with PMSF (second value of cell), read-out: Ki CB1 (nM) (o/w PMSF)
[5] = without PMSF (first value of cell), read-out: Ki CB1 (nM) (o/w PMSF)

T1 sequence (P47936 whole entry): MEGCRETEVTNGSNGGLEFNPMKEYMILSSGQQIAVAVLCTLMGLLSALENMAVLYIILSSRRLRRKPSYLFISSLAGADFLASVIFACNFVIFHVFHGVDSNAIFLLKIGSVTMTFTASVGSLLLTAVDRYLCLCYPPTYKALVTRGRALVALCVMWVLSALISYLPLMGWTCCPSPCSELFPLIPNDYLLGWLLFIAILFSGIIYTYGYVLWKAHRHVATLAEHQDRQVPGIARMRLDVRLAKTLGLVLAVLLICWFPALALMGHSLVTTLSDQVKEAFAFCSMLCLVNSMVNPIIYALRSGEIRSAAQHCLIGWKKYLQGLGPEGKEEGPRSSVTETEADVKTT

Compound	pKi (CB2 receptor)	pIC50 (anandamide transporter; read-out: IC50 AT inhibition)	Ki (CB1 cannabinoid receptor; [2]) [nM]	Ki (CB1 cannabinoid receptor; [3]) [nM]	Mag-Lipase % Inhibition (Mag-lipase) [%]	pIC50 (anandamide transporter; read-out: IC50 (AT inhib.))	Ki (CB1 cannabinoid receptor; [4]) [nM]	Ki (CB1 cannabinoid receptor; [5]) [nM]	inhibition at 100 µM (Mag-lipase) [%]	FAAH % Inhibition [1] [%]
CCCCCN(C)C/C=C\C/C=C\C/C=C\C/C=C\CCCCNC(=O)c1ccc(O)cc1 [Compound A27]	5.59	5.15	1620	2220	4.2					
CCCCC/C=C\C/C=C\C/C=C\C/C=C\CCCCOC(=O)Nc1cccnc1 [Compound B11]	6.73					4.79	96.4	302	16.8	
CCCCCN(C)C/C=C\C/C=C\C/C=C\C/C=C\CCCCNC(=O)c1ccc(O)cc1 [Compound A26]	5.54	5.27	2150	4720	9.8					
CCCCCCCCC=CCCCCCCCCOC(=O)NCC(C)O (stereo not shown) [Compound B13]	5.59				13.1	5.23	2240	4750		
[N-]=[N+]=NCCCCC/C=C\C/C=C\C/C=C\C/C=C\CCCC(=O)NC1=NCCS1 [Compound A14]	6.61	5.92	144	428						48
CCCCC/C=C\C/C=C\C/C=C\C/C=C\CCCCOC(=O)NC1=NCCS1 [Compound B10]					34.0	5.07				
[N-]=[N+]=NCCCCC/C=C\C/C=C\C/C=C\C/C=C\CCCC(=O)Nc1ccc(O)cc1 [Compound A13]	6.48	6.15	531	3830						33
N#CCCCCC/C=C\C/C=C\C/C=C\C/C=C\CCCC(=O)NC1CC1 [Compound A19]	8.24	4.63	0.04	32.9						57
